Experimental data reported in ChEMBL document CHEMBL6103637, “Additional Bioactive Silvestrol Analogs from the Roots of Aglaia perviridis Collected in Vietnam” (J Nat Prod, 2025).

Legend:
Type in all cases: functional, cell-based
OVCAR-3 = assay: Cytotoxicity against human OVCAR-3 cells assessed as inhibition of cell viability incubated for 72 hrs by CellTiter-blue cell viability assay; details: OVCAR-3, 72 h
HT-29 = assay: Cytotoxicity against human HT-29 cells assessed as inhibition of cell viability incubated for 72 hrs by CellTiter-blue cell viability assay; details: HT-29, 72 h
MDA-MB-231 = assay: Cytotoxicity against human MDA-MB-231 cells assessed as inhibition of cell viability incubated for 72 hrs by CellTiter-blue cell viability assay; details: MDA-MB-231, 72 h
MDA-MB-435 = assay: Cytotoxicity against human MDA-MB-435 cells assessed as inhibition of cell viability incubated for 72 hrs by CellTiter-blue cell viability assay; details: MDA-MB-435, 72 h

Row | Compound | IC50 (OVCAR-3) [nM] | IC50 (HT-29) [nM] | IC50 (MDA-MB-231) [nM] | IC50 (MDA-MB-435) [nM]
1 | COC(=O)[C@H]1[C@@H](O)[C@@]2(O)c3c(OC)cc(O[C@@H]4O[C@@H]([C@@H](O)CO)CO[C@@H]4OC)cc3O[C@@]2(c2ccc(OC)cc2)[C@@H]1c1ccccc1 | 210 | 450 | 210 | 250
2 | COC(=O)[C@H]1[C@@H](O)[C@@]2(O)c3c(OC)cc(O[C@@H]4O[C@@H]([C@@H]5COC(C)(C)O5)CO[C@H]4OC)cc3O[C@@]2(c2ccc(OC)cc2)[C@@H]1c1ccccc1 | 38 | 37 | 20 | 26
3 | CC(=O)O[C@H]1C(=O)[C@@]2(C)[C@H]([C@H](OC(=O)c3ccccc3)[C@]3(O)C[C@H](OC(=O)[C@H](O)[C@@H](NC(=O)c4ccccc4)c4ccccc4)C(C)=C1C3(C)C)[C@]1(OC(C)=O)CO[C@@H]1C[C@@H]2O [PACLITAXEL] | 12 | – | – | 5
4 | COC(=O)[C@H]1[C@@H](O)[C@@]2(O)c3c(OC)cc(O[C@@H]4O[C@@H]([C@@H](O)CO)CO[C@H]4OC)cc3O[C@@]2(c2ccc(OC)cc2)[C@@H]1c1ccccc1 [2'-EPISILVESTROL] | 2 | 3 | 2 | 2
5 | COC(=O)[C@H]1[C@@H](O)[C@@]2(O)c3c(OC)cc(O[C@@H]4O[C@@H]([C@H]5COC(C)(C)O5)CO[C@H]4OC)cc3O[C@@]2(c2ccc(OC)cc2)[C@@H]1c1ccccc1 | 37 | 20 | 260 | 31
6 | COC(=O)[C@H]1[C@@H](O)[C@@]2(O)c3c(OC)cc(O[C@@H]4O[C@@H]([C@H](O)CO)CO[C@@H]4OC)cc3O[C@@]2(c2ccc(OC)cc2)[C@@H]1c1ccccc1 | 210 | 370 | 240 | 250
7 | COC(=O)[C@H]1[C@@H](O)[C@@]2(O)c3c(OC)cc(O[C@@H]4O[C@@H]([C@H](O)CO)CO[C@H]4OC)cc3O[C@@]2(c2ccc(OC)cc2)[C@@H]1c1ccccc1 [SILVESTROL] | 2 | 30 | 2 | 2
